Source: paper PMC8600679, “Substituted Two- to Five-Ring Polycyclic Aromatic Compounds Are Potent Agonists of Atlantic Cod (Gadus morhua) Aryl Hydrocarbon Receptors Ahr1a and Ahr2a” (Environmental Science & Technology, 2021)
Read-outs that look alike come from different tables or passages of the source.

What was measured:
Atlantic cod Ahr1a = Atlantic cod Ahr1a (Gadus morhua, UniProt A0A6H1Z2L5); experiment: cell-based; conditions: for Activation of Ahr1a (agonist or not): in vitro transactivation; for Ahr1a REP25: EC25 of TCDD divided by concentration of PAC giving 25% of TCDD response; for Efficacy compared to TCDD with Ahr1a: Welch's t-test, Supporting Table S6
Atlantic cod Ahr2a = biological target: T1, Atlantic cod Ahr2a (Gadus morhua, UniProt A0A6H1Z3G8); experiment: cell-based; conditions: for Activation of Ahr2a (agonist or not): in vitro transactivation; for Efficacy compared to TCDD via Ahr2a: Welch's t-test, Supporting Table S6; for Ahr2a REP25: EC25 of TCDD divided by concentration of PAC giving 25% of TCDD response
T1 sequence (A0A6H1Z3G8 1-1127): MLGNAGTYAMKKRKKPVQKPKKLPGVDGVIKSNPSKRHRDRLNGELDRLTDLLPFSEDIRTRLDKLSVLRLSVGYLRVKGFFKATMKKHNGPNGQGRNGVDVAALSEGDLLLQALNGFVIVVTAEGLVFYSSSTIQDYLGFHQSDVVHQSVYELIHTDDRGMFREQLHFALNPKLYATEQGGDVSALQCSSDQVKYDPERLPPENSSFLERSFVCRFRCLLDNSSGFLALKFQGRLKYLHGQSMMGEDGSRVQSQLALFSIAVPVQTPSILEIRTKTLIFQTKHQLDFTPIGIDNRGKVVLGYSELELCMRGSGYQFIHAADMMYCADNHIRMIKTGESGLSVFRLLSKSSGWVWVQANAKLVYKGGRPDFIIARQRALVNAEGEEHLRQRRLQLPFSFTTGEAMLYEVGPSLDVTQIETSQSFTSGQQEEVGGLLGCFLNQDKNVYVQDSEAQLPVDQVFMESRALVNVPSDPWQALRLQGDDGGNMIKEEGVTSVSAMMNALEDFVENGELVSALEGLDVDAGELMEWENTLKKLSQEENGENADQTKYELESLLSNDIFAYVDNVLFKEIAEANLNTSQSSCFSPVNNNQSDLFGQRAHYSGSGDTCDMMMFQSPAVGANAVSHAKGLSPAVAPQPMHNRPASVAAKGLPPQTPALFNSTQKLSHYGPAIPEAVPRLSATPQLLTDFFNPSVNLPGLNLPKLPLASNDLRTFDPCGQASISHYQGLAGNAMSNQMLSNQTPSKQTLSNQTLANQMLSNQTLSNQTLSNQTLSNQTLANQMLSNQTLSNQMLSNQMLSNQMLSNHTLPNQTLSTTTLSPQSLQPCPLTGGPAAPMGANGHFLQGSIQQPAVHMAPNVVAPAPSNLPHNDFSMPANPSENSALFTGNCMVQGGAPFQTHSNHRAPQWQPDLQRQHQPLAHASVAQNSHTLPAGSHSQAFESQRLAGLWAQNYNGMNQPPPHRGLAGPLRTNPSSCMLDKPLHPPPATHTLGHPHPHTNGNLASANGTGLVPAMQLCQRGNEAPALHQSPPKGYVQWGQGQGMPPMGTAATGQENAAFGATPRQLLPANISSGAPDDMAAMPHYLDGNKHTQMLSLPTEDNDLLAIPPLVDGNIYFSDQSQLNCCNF

[1] = percent of maximum efficacy determined for TCDD, COS-7 cells, 24 h exposure, None = no agonistic response significantly different from solvent
[2] = COS-7 cells, 24 h exposure, read-out: Ahr1a EC50
[3] = percent of maximum efficacy determined for TCDD, COS-7 cells, 24 h exposure, None = no agonistic response significantly different from solvent, read-out: Ahr1a Relative Emax (%)
[4] = COS-7 cells, 24 h exposure, read-out: Ahr2a EC50
[5] = percent of maximum efficacy determined for TCDD, COS-7 cells, 24 h exposure, None = no agonistic response significantly different from solvent, read-out: Ahr2a Relative Emax (%)
[6] = Supplementary Table S5, read-out: Potency (EC50, nM) Ahr2a
[7] = COS-7, curve did not reach a plateau: relative response at the highest tested concentration, percent of TCDD maximum, read-out: Ahr1a Relative Emax (%), marked *

Chain of Atlantic cod Ahr1a (A0A6H1Z2L5 1-957): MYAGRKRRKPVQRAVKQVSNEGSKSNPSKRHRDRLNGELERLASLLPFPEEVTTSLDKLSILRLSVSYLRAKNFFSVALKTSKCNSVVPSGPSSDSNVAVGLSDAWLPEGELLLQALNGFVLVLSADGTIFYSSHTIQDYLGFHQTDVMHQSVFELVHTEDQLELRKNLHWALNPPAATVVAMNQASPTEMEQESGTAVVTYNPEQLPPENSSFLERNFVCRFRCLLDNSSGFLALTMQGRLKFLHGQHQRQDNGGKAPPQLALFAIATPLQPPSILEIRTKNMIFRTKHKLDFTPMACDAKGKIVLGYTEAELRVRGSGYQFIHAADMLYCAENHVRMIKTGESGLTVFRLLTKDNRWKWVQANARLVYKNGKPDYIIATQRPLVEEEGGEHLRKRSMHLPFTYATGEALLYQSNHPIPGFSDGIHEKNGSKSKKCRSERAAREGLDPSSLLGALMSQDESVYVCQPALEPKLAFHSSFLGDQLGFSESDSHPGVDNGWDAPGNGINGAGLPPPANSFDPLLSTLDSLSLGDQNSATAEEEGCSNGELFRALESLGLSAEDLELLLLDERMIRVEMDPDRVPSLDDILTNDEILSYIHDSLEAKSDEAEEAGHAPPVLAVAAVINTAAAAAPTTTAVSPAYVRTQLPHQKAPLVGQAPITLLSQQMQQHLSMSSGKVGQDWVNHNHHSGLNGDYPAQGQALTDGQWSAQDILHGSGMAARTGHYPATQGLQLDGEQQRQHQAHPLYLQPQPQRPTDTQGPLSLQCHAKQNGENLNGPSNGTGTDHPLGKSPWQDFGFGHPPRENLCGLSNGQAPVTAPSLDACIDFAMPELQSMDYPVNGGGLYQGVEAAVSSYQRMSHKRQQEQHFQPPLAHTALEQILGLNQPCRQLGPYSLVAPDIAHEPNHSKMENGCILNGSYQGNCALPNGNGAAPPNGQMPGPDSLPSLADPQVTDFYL
Chain of Atlantic cod Ahr1a (A0A8C5CZZ9 1-645 partner): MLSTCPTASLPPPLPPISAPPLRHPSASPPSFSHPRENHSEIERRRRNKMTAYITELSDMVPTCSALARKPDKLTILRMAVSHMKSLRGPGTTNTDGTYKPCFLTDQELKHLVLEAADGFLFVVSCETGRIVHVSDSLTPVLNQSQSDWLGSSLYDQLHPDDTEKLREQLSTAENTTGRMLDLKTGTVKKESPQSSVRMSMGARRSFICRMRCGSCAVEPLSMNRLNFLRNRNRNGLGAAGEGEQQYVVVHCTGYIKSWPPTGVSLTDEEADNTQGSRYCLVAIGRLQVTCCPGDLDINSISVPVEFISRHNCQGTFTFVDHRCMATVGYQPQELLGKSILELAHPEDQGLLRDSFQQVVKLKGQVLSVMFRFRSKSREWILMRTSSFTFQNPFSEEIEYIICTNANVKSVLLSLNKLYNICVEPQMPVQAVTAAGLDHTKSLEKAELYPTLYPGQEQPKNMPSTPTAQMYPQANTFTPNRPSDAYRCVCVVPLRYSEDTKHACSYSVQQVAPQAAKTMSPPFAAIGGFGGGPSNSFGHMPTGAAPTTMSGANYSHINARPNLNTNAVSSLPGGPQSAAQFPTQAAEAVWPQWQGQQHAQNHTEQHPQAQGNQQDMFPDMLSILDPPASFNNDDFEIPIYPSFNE

SMILES: c1ccc2ccccc2c1 [NAP, Naphthalene]
- Activation of Ahr1a (agonist or not) (Atlantic cod Ahr1a): did not activate
- Ahr1a Relative Emax (%) (Atlantic cod Ahr1a; [1]): None
- Activation of Ahr2a (agonist or not) (Atlantic cod Ahr2a): did not activate
- Ahr2a Relative Emax (%) (Atlantic cod Ahr2a; [1]): None

SMILES: Cc1ccc(C)c2c1ccc1ccccc12 [1,4-DMP, 1,4-Dimethylphenanthrene]
- Activation of Ahr1a (agonist or not) (Atlantic cod Ahr1a): did not activate
- Ahr1a Relative Emax (%) (Atlantic cod Ahr1a; [1]): None
- Activation of Ahr2a (agonist or not) (Atlantic cod Ahr2a): did not activate
- Ahr2a Relative Emax (%) (Atlantic cod Ahr2a; [1]): None

SMILES: COc1ccc2c(ccc3c4ccccc4ccc23)c1 [2-MOC, 2-Methoxychrysene]
- EC50 (Atlantic cod Ahr1a; [2]): 13 nM
- Ahr1a REP25 (Atlantic cod Ahr1a): 0.244
- Efficacy compared to TCDD with Ahr1a (Atlantic cod Ahr1a): efficacies similar to that of TCDD
- Emax (Atlantic cod Ahr1a; [3]): 95.9%
- Emax (Atlantic cod Ahr2a; COS-7, Supplementary Table S5, read-out: Efficacy (Emax, %) Ahr2a): 114%
- EC50 (Atlantic cod Ahr2a; [4]): 20.1 nM
- Efficacy compared to TCDD via Ahr2a (Atlantic cod Ahr2a): superefficacies
- Emax (Atlantic cod Ahr2a; [5]): 115%

SMILES: c1cc2ccc3cccc4ccc(c1)c2c34 [PYR, Pyrene]
- Activation of Ahr1a (agonist or not) (Atlantic cod Ahr1a): did not activate
- Ahr1a Relative Emax (%) (Atlantic cod Ahr1a; [1]): None
- Activation of Ahr2a (agonist or not) (Atlantic cod Ahr2a): did not activate
- Ahr2a Relative Emax (%) (Atlantic cod Ahr2a; [1]): None

SMILES: COc1cccc2c1ccc1c3ccccc3ccc21 [1-MOC, 1-Methoxychrysene]
- EC50 (Atlantic cod Ahr1a; [2]): 102 nM
- Ahr1a REP25 (Atlantic cod Ahr1a): 0.0277
- EC50 (Atlantic cod Ahr1a; Supplementary Table S5, read-out: Potency (EC50, nM) Ahr1a): 102 nM
- Efficacy compared to TCDD with Ahr1a (Atlantic cod Ahr1a): efficacies similar to that of TCDD
- Emax (Atlantic cod Ahr1a; [3]): 97.3%
- EC50 (Atlantic cod Ahr2a; [4]): 160 nM
- Ahr2a REP25 (Atlantic cod Ahr2a): 0.0243
- EC50 (Atlantic cod Ahr2a; [6]): 160 nM
- Efficacy compared to TCDD via Ahr2a (Atlantic cod Ahr2a): lower efficacies in comparison to TCDD
- Emax (Atlantic cod Ahr2a; [5]): 66.4%

SMILES: CCCc1ccc2ccc3ccccc3c2c1 [3-PP, 3-Propylphenanthrene]
- Emax (Atlantic cod Ahr1a; [7]): 42.5%
- Ahr1a REP25 (Atlantic cod Ahr1a): 0.00011
- Activation of Ahr1a (agonist or not) (Atlantic cod Ahr1a): activated both Ahr1a and Ahr2a
- Activation of Ahr2a (agonist or not) (Atlantic cod Ahr2a): activated both Ahr1a and Ahr2a
- Emax (Atlantic cod Ahr2a; [5]): 12.4%

SMILES: c1ccc2c(c1)ccc1ccccc12 [PHE, Phenanthrene]
- Activation of Ahr1a (agonist or not) (Atlantic cod Ahr1a): did not activate
- Ahr1a Relative Emax (%) (Atlantic cod Ahr1a; [1]): None
- Activation of Ahr2a (agonist or not) (Atlantic cod Ahr2a): did not activate
- Ahr2a Relative Emax (%) (Atlantic cod Ahr2a; [1]): None

SMILES: O[C@@H]1C=Cc2ccccc2[C@H]1O [R,R-1,2-DHN, (1R,2R)-1.2-Dihydronaphthalene-1,2-diol]
- Emax (Atlantic cod Ahr1a; [7]): 145%
- Ahr1a REP25 (Atlantic cod Ahr1a): 0.00028
- Activation of Ahr1a (agonist or not) (Atlantic cod Ahr1a): activated both Ahr1a and Ahr2a
- fold higher REP25 with Ahr2a compared to Ahr1a (Atlantic cod Ahr2a; Ahr2a versus Ahr1a): 5- to 10 fold
- Emax (Atlantic cod Ahr2a; COS-7, curve did not reach a plateau: relative response at the highest tested concentration, percent of TCDD maximum, read-out: Ahr2a Relative Emax (%), marked *): 140%
- Ahr2a REP25 (Atlantic cod Ahr2a): 0.00124
- Activation of Ahr2a (agonist or not) (Atlantic cod Ahr2a): activated both Ahr1a and Ahr2a

SMILES: Cc1cccc2ccc3c4ccccc4ccc3c12 [4-MC, 4-Methylchrysene]
- Emax (Atlantic cod Ahr1a; COS-7, Supplementary Table S5, read-out: Efficacy (Emax, %) Ahr1a): 112%
- EC50 (Atlantic cod Ahr1a; [2]): 120 nM
- Ahr1a REP25 (Atlantic cod Ahr1a): 0.041
- Efficacy compared to TCDD with Ahr1a (Atlantic cod Ahr1a): higher efficacies (superefficacies) than TCDD
- Emax (Atlantic cod Ahr1a; [3]): 113%
- EC50 (Atlantic cod Ahr2a; [4]): 128 nM
- Ahr2a REP25 (Atlantic cod Ahr2a): 0.0217
- EC50 (Atlantic cod Ahr2a; [6]): 128 nM
- Efficacy compared to TCDD via Ahr2a (Atlantic cod Ahr2a): lower efficacies in comparison to TCDD
- Emax (Atlantic cod Ahr2a; [5]): 55.9%

SMILES: Cc1ccc2ccc3ccc(C)cc3c2c1 [3,6-DMP, 3,6-Dimethylphenanthrene]
- Activation of Ahr1a (agonist or not) (Atlantic cod Ahr1a): did not activate
- Ahr1a Relative Emax (%) (Atlantic cod Ahr1a; [1]): None
- Activation of Ahr2a (agonist or not) (Atlantic cod Ahr2a): did not activate
- Ahr2a Relative Emax (%) (Atlantic cod Ahr2a; [1]): None

SMILES: Oc1ccc2c(ccc3c4ccccc4ccc23)c1 [2-COH, Chrysene-2-ol]
- EC50 (Atlantic cod Ahr1a; Ahr1a EC50 (nM), COS-7 cells, 24 h exposure): 325 nM
- Emax (Atlantic cod Ahr1a; COS-7, read-out: Ahr1a Relative Emax (%)): 91.1%
- Ahr1a REP25 (Atlantic cod Ahr1a): 0.00268
- EC50 (Atlantic cod Ahr1a; Potency (EC50, nM) Ahr1a, Supplementary Table S5): 324 nM
- Efficacy compared to TCDD with Ahr1a (Atlantic cod Ahr1a): efficacies similar to that of TCDD
- EC50 (Atlantic cod Ahr2a; Ahr2a EC50 (nM), COS-7 cells, 24 h exposure): 380 nM
- Emax (Atlantic cod Ahr2a; COS-7, read-out: Ahr2a Relative Emax (%)): 40.8%
- Ahr2a REP25 (Atlantic cod Ahr2a): 0.0038
- Efficacy compared to TCDD via Ahr2a (Atlantic cod Ahr2a): lower efficacies in comparison to TCDD
